# Source: US20220287976A1, “AMMONIA AS A PROCESSING AID FOR SPRAYED SOLID DISPERSIONS” (Capsugel Belgium NV, priority 2019, published 2022)
# What was measured:
# [1] = Crystalline solubility in methanol (saturated solution, thermogravimetric analysis of supernatant); type: physicochemical; conditions: organic solvent or mixture, thermodynamic from solid, no ammonia
# Description: A saturated solution of sulfasalazine (Spectrum Chemical) was prepared in methanol with excess crystalline sulfasalazine.
# A saturated solution of piroxicam (Spectrum Chemical) was prepared in methanol with excess crystalline piroxicam.
# [2] = Concentration enhancement in methanol with ammonia; type: physicochemical; conditions: for concentration in methanol in the presence of ammonia: methanol with about 1.07 molar equivalents of ammonia, completely dissolved; for time to dissolution after addition of ammonia: slurry in methanol, 2.14 M ammonia in methanol added with stirring; for solubility enhancement in methanol in the presence of ammonia: versus crystalline solubility in methanol without ammonia
# Description: A second mixture of sulfasalazine in methanol was prepared by stirring 656.0 mg of sulfasalazine (1.65 mmol) in 14.00 mL of methanol. To this slurry, 0.825 mL of 2.14 M ammonia (1.76 mmol) in methanol was added with stirring resulting in complete dissolution of sulfasalazine within 1 minute.
# A second mixture of piroxicam in methanol was prepared by stirring 661.8 mg of piroxicam (2.00 mmol) in 15.00 mL of methanol.
compound,measurement,setting,value
CN1C(C(=O)Nc2ccccn2)=C(O)c2ccccc2S1(=O)=O [piroxicam],solubility,[1],~2100 µg/mL
same,concentration in methanol in the presence of ammonia,[2],greater than 41 mg/mL
same,time to dissolution after addition of ammonia,[2],≤ 1 min
same,solubility enhancement in methanol in the presence of ammonia,[2],greater than 19 fold
O=C(O)c1cc(/N=N/c2ccc(S(=O)(=O)Nc3ccccn3)cc2)ccc1O [sulfasalazine],solubility,[1],~1000 µg/mL
same,concentration in methanol in the presence of ammonia,[2],greater than 43 mg/mL
same,time to dissolution after addition of ammonia,[2],≤ 1 min
same,solubility enhancement in methanol in the presence of ammonia,[2],about 43 fold
